Key:
Assay in all cases: Transport of fluorescent substrates in BacMam-transduced HeLa cells (flow cytometry)
[1] = target: Y307C/Q725C/V982C mutant Pgp (Homo sapiens, UniProt P08183, C1074A/C1125A/C1227A/C137A/C431A/C717A/C956A/Q725C/V982C/Y307C); conditions: Y307/Q725C/V982C in HeLa cells; compared to cysless WT Pgp (taken as 100%); calcein-AM 0.5 µM 10 min, Rh123 […], other substrates 0.5 µM 45 min
Method: (§1) The BacMam-Pgp virus (encoding cysless WT and the mutant Pgps) was added to 2.5 million HeLa cells at a titer of 50-60 viral particles per cell in 3 ml of DMEM and incubated at 37°C [30]. After 1 hr DMEM was added to make a total of 20 ml in the flask and these infected cells were further incubated for 3-4 hrs. 10 mM butyric acid was then added and the cells continued to incubate at 37°C. After 24 hrs, the cells were trypsinized, washed, counted and analyzed by flow cytometry for cell surface expression and the function of the wildtype and mutant Pgps.
(§2) The transport function of cysless WT and mutant Pgps was determined using fluorescent compounds with flow cytometry as previously described. […] Cells were washed with cold PBS and resuspended in PBS containing 0.1% BSA before analysis.

[2] = target: F343C mutant Pgp (Homo sapiens, UniProt P08183, C1074A/C1125A/C1227A/C137A/C431A/C717A/C956A/F343C); conditions: compared to cysless WT Pgp (taken as 100%), calcein-AM 0.5 µM 10 min, Rh123 […], other substrates 0.5 µM 45 min
Method: as §1, §2

[3] = target: V982C mutant Pgp (Homo sapiens, UniProt P08183, C1074A/C1125A/C1227A/C137A/C431A/C717A/C956A/V982C); conditions: compared to cysless WT Pgp (taken as 100%), calcein-AM 0.5 µM 10 min, Rh123 […], other substrates 0.5 µM 45 min
Method: as §1, §2

[4] = target: Q725C/V982C mutant Pgp (Homo sapiens, UniProt P08183, C1074A/C1125A/C1227A/C137A/C431A/C717A/C956A/Q725C/V982C); conditions: compared to cysless WT Pgp (taken as 100%), calcein-AM 0.5 µM 10 min, Rh123 […], other substrates 0.5 µM 45 min
Method: as §1, §2

[5] = target: F343C/V982C mutant Pgp (Homo sapiens, UniProt P08183, C1074A/C1125A/C1227A/C137A/C431A/C717A/C956A/F343C/V982C); conditions: compared to cysless WT Pgp (taken as 100%), calcein-AM 0.5 µM 10 min, Rh123 […], other substrates 0.5 µM 45 min
Method: as §1, §2

[6] = target: Y307C/V982C mutant Pgp (Homo sapiens, UniProt P08183, C1074A/C1125A/C1227A/C137A/C431A/C717A/C956A/V982C/Y307C); conditions: compared to cysless WT Pgp (taken as 100%), calcein-AM 0.5 µM 10 min, Rh123 […], other substrates 0.5 µM 45 min
Method: as §1, §2

[7] = target: Q725C mutant Pgp (Homo sapiens, UniProt P08183, C1074A/C1125A/C1227A/C137A/C431A/C717A/C956A/Q725C); conditions: compared to cysless WT Pgp (taken as 100%), calcein-AM 0.5 µM 10 min, Rh123 […], other substrates 0.5 µM 45 min
Method: as §1, §2

[8] = target: F728C mutant Pgp (Homo sapiens, UniProt P08183, C1074A/C1125A/C1227A/C137A/C431A/C717A/C956A/F728C); conditions: compared to cysless WT Pgp (taken as 100%), calcein-AM 0.5 µM 10 min, Rh123 […], other substrates 0.5 µM 45 min
Method: as §1, §2

[9] = target: Y307C mutant Pgp (Homo sapiens, UniProt P08183, C1074A/C1125A/C1227A/C137A/C431A/C717A/C956A/Y307C); conditions: compared to cysless WT Pgp (taken as 100%), calcein-AM 0.5 µM 10 min, Rh123 […], other substrates 0.5 µM 45 min
Method: as §1, §2

[10] = target: F728C/V982C mutant Pgp (Homo sapiens, UniProt P08183, C1074A/C1125A/C1227A/C137A/C431A/C717A/C956A/F728C/V982C); conditions: compared to cysless WT Pgp (taken as 100%), calcein-AM 0.5 µM 10 min, Rh123 […], other substrates 0.5 µM 45 min
Method: as §1, §2

[11] = target: F978C mutant Pgp (Homo sapiens, UniProt P08183, C1074A/C1125A/C1227A/C137A/C431A/C717A/C956A/F978C); conditions: compared to cysless WT Pgp (taken as 100%), calcein-AM 0.5 µM 10 min, Rh123 […], other substrates 0.5 µM 45 min
Method: as §1, §2

With CC(=O)OCOC(=O)CN(CC(=O)OCOC(C)=O)Cc1cc2c(cc1OC(C)=O)Oc1cc(OC(C)=O)c(CN(CC(=O)OCOC(C)=O)CC(=O)OCOC(C)=O)cc1C21OC(=O)c2ccccc21 [CalAM, calcein-AM] the Transport function [1] was 90-100%, the Transport function [2] was 90-100% and the Transport function [3] was 90-100%. The Transport function [4] was 90-100%, the Transport function [5] was 90-100% and the Transport function [6] was 90-100%. For the same compound, the Transport function [7] was 90-100%, the Transport function [8] was 90-100% and the Transport function [9] was 90-100%. The Transport function [10] was 55-65% and the Transport function [11] was 90-100%.

— PMC3857843, “Multiple Transport-Active Binding Sites Are Available for a Single Substrate on Human P-Glycoprotein (ABCB1)” (PLoS ONE, 2013)
